In series [1] the test system is HIV-1-GFP. The series can be described thus: microbe, parasite or virus in culture. The format is cell-based. How it is done:
H9 and Jurkat cells (6 × 10^5 cells/mL) were treated with increasing concentrations of nucleoside analogues (0–200 μM; except CFB, 0–1.6 μM) and incubated for 4 h at 37 °C in 5% CO2. Cells were then infected with HIV-1-GFP by spinoculation at 800 × g for 90 min in the presence of 1 μg/mL polybrene, and further incubated at 37 °C in 5% CO2 for 72 h. Undifferentiated U937 and THP-1 (PMA^−) cells (6 × 10^5 cells/mL) were treated with increasing concentrations of nucleoside analogues (0–200 μM; except CFB, 0–1.6 μM) and incubated at 37 °C in 5% CO2 for 48 h. Cells were then infected with HIV-1-GFP by spinoculation at 800 × g for 90 min in the presence of 1 μg/mL polybrene, and further incubated at 37 °C in 5% CO2 for 72 h. Non-dividing U937 and THP-1 (PMA^+) cells (6 × 10^5 cells/mL) were differentiated by addition of 100 nM PMA (PMA^+) for 48 h and treated with increasing concentrations of nucleoside analogues as described above. Cells were then infected with HIV-1-GFP in the presence of 1 μg/mL polybrene and further incubated at 37 °C in 5% CO2 for 72 h. The percentage of GFP^+cells was determined by one-colour flow cytometry using a Fortessa X20 analyser (BD Biosciences) and the data analysed using the FlowJo software suite.
(§1) Non-ambiguous values were subjected to a replicate test to calculate confidence intervals of 95% (95% CI). CC50 and EC50 values were determined for at least two independent experiments for each nucleoside analogue and a selectivity index (SI) also calculated, (SI = CC50/EC50). EC50 values for each replicate were used to perform an unpaired two-tailed t-test to determine significant differences between U937 cells expressing SAMHD1 wt or HD206-7AA mutant and THP-1 cells expressing Vpx or untransduced cells. P values of <0.005 were considered statistically significant.

Series [2] relates to HIV-1-GFP. The series can be described thus: Anti-HIV-1 activity in U937 cells transduced with wt SAMHD1 or HD206-7AA mutant. It is filed as cell-based. How it is done:
(§2) Antiviral assays were further performed in monocytoid cells transduced with YFP-expressing VLPs containing WT SAMHD1, HD206-7AA or Vpx. Briefly, U937 cells (6 × 10^5 cells/mL) were transduced with WT SAMHD1-YFP or HD206-7AA-YFP VLPs by spinoculation at 800 × g for 90 min in the presence of 1 μg/mL polybrene. Similarly, THP-1 cells (6 × 10^5 cells/mL) were transduced with Vpx-YFP VLPs by spinoculation at 800 × g for 90 min in the presence of 1 μg/mL polybrene. Cells were incubated at 37 °C in 5% CO2 and after 72 h, PMA^+ cells (6 × 10^5 cells/mL) were treated with 100 nM PMA and PMA^− cells (7.5 × 10^4 cells/mL) were left untreated. Cells were then incubated at 37 °C in 5% CO2 for 48 h. Nucleoside analogues were added at increasing concentrations (0–200 μM; except CFB, 0–1.6 μM) and cells were further incubated for 48 h. PMA^− cells were then infected with HIV-1-GFP by spinoculation at 800 × g for 90 min in the presence of 1 μg/mL polybrene, PMA^+ cells were infected with HIV-1-GFP in the presence of 1 μg/mL polybrene only. Cells were incubated for 72 h at 37 °C in 5% CO2 and then analysed by two-colour flow cytometry using a Fortessa X20 analyser (BD Biosciences). Data were analysed using the FlowJo software suite.
as §1, with “The cytotoxic concentration of nucleoside analogue that inhibits cell viability by 50% (CC50) and the effective concentration of nucleoside analogue that inhibits infection of cells by 50% (EC50) were calculated for each independent experiment by non-linear regression using GraphPad Prism v6.00 for Windows (GraphPad Software, San Diego, CA). Non-ambiguous” for “Non-ambiguous”

Series [3] concerns HIV-1-GFP. Briefly: Anti-HIV-1 activity in THP-1 cells with or without Vpx transduction. It is filed as cell-based. How it is done:
as §2
as §1, with “The cytotoxic concentration of nucleoside analogue that inhibits cell viability by 50% (CC50) and the effective concentration of nucleoside analogue that inhibits infection of cells by 50% (EC50) were calculated for each independent experiment by non-linear regression using GraphPad Prism v6.00 for Windows (GraphPad Software, San Diego, CA). Non-ambiguous” for “Non-ambiguous”

Series [4] in a line: Cytotoxicity, live cells by flow cytometry, H9 cells. Conditions: human. The format is cell-based. How it is done:
(§3) H9, Jurkat and undifferentiated U937 and THP-1 (PMA^−) cells (6 × 10^5 cells/mL) were treated with increasing concentrations of nucleoside analogues (0–200 μM; except CFB, 0–1.6 μM) and incubated at 37 °C in 5% CO2 for 48 h. Medium was then replaced and cells were further incubated for 72 h. Non-dividing U937 and THP-1 (PMA^+) cells (6 × 10^5 cells/mL) were differentiated by addition of 100 nM phorbol-12-myristate-13-acetate (PMA^+) for 48 h and then treated with increasing concentrations of nucleoside analogues as described above. The percentage of live cells was determined by flow cytometry using Live/Dead fixable blue-fluorescent dyes (Invitrogen) and a Fortessa X20 analyser (BD Biosciences). Data were analysed using the FlowJo software suite.
as §1, with “The cytotoxic concentration of nucleoside analogue that inhibits cell viability by 50% (CC50) and the effective concentration of nucleoside analogue that inhibits infection of cells by 50% (EC50) were calculated for each independent experiment by non-linear regression using GraphPad Prism v6.00 for Windows (GraphPad Software, San Diego, CA). Non-ambiguous” for “Non-ambiguous”

Series [5] is described as follows: Cytotoxicity, live cells by flow cytometry, Jurkat cells. Conditions: human. It is filed as cell-based. As for the experimental part: as §3
as §1, with “The cytotoxic concentration of nucleoside analogue that inhibits cell viability by 50% (CC50) and the effective concentration of nucleoside analogue that inhibits infection of cells by 50% (EC50) were calculated for each independent experiment by non-linear regression using GraphPad Prism v6.00 for Windows (GraphPad Software, San Diego, CA). Non-ambiguous” for “Non-ambiguous”
(A flow cytometer gives signals particle by particle.)

Series [6] is described as follows: Cytotoxicity, live cells by flow cytometry, U937 cells (PMA−/PMA+). The format is cell-based. The conditions noted are these: human. As for the experimental part: as §3
as §1, with “The cytotoxic concentration of nucleoside analogue that inhibits cell viability by 50% (CC50) and the effective concentration of nucleoside analogue that inhibits infection of cells by 50% (EC50) were calculated for each independent experiment by non-linear regression using GraphPad Prism v6.00 for Windows (GraphPad Software, San Diego, CA). Non-ambiguous” for “Non-ambiguous”

The subject of a further series is U937 cells. Described as above. The format is cell-based. Conditions: human, 48 h. As for the experimental part: as §3
as §1, with “The cytotoxic concentration of nucleoside analogue that inhibits cell viability by 50% (CC50) and the effective concentration of nucleoside analogue that inhibits infection of cells by 50% (EC50) were calculated for each independent experiment by non-linear regression using GraphPad Prism v6.00 for Windows (GraphPad Software, San Diego, CA). Non-ambiguous” for “Non-ambiguous”

Series [7] is described as follows: Cytotoxicity, live cells by flow cytometry, THP-1 cells (PMA−/PMA+). The conditions noted are these: human. It is filed as cell-based. How it is done:
as §3
as §1, with “The cytotoxic concentration of nucleoside analogue that inhibits cell viability by 50% (CC50) and the effective concentration of nucleoside analogue that inhibits infection of cells by 50% (EC50) were calculated for each independent experiment by non-linear regression using GraphPad Prism v6.00 for Windows (GraphPad Software, San Diego, CA). Non-ambiguous” for “Non-ambiguous”

A further series deals with THP-1 cells. The description is as above. The format is cell-based. The conditions noted are these: human, 48 h. How it is done: as §3
as §1, with “The cytotoxic concentration of nucleoside analogue that inhibits cell viability by 50% (CC50) and the effective concentration of nucleoside analogue that inhibits infection of cells by 50% (EC50) were calculated for each independent experiment by non-linear regression using GraphPad Prism v6.00 for Windows (GraphPad Software, San Diego, CA). Non-ambiguous” for “Non-ambiguous”

A short description of another series: in vitro. The format is cell-based. Conditions: human. As for the experimental part: as §3
as §1, with “The cytotoxic concentration of nucleoside analogue that inhibits cell viability by 50% (CC50) and the effective concentration of nucleoside analogue that inhibits infection of cells by 50% (EC50) were calculated for each independent experiment by non-linear regression using GraphPad Prism v6.00 for Windows (GraphPad Software, San Diego, CA). Non-ambiguous” for “Non-ambiguous”

In another series the target is T1, SAMHD1 (Homo sapiens, UniProt Q9Y3Z3).
T1 construct: The final concentrations were 100 nM SAMHD1(115–626), 10 nM Ppx1; strep-tag; made in house
T1 sequence (Q9Y3Z3 115-626): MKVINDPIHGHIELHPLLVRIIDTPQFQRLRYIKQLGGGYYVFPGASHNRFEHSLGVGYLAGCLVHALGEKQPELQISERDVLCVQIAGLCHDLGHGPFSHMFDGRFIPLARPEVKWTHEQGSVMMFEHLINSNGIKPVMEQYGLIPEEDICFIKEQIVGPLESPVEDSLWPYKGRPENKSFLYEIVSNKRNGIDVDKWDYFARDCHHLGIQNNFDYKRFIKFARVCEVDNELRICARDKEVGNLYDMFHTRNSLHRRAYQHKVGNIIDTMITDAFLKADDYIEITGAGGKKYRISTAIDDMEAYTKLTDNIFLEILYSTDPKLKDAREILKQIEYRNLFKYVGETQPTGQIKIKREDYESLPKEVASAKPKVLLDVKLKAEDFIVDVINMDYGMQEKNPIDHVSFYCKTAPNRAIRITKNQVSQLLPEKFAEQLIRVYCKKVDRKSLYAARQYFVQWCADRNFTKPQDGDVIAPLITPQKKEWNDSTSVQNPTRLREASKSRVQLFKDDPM
The arrangement: method as in PMID 25331707. Conditions: previous in vitro assays; cited from earlier work.

As to `Nc1nc(NC2CC2)c2ncn([C@H]3C=C[C@@H](CO)C3)c2n1` [ABC], the EC50 in the series on HIV-1-GFP [1] (Human immunodeficiency virus 1, THP-1, read-out: EC50 [95% CI], THP1 PMA+) was 0.031 µM; in the series with HIV-1-GFP [1] (Human immunodeficiency virus 1, THP-1, read-out: EC50 [95% CI], THP1 PMA−), 0.493 µM; with HIV-1-GFP [1] (Human immunodeficiency virus 1, U-937, read-out: EC50 [95% CI], U937 PMA+), 7.47 µM; in the series with HIV-1-GFP [1] (Human immunodeficiency virus 1, U-937, read-out: EC50 [95% CI], U937 PMA−), 14.1 µM; with HIV-1-GFP [2] (Human immunodeficiency virus 1, U-937, read-out: EC50 [95% CI], U937 PMA+, HD206/7AA+ population), 7.06 µM; with HIV-1-GFP [2] (Human immunodeficiency virus 1, U-937, read-out: EC50 [95% CI], U937 PMA+, SAMHD1+ population), 0.173 µM. The EC50 was determined as 22.1 µM with HIV-1-GFP [2] (Human immunodeficiency virus 1, U-937, read-out: EC50 [95% CI], U937 PMA−, HD206/7AA+ population); 17.5 µM in the series with HIV-1-GFP [2] (Human immunodeficiency virus 1, U-937, read-out: EC50 [95% CI], U937 PMA−, SAMHD1+ population); 7.05 µM with HIV-1-GFP [3] (Human immunodeficiency virus 1, THP-1, read-out: EC50 [95% CI], THP1 PMA+, Vpx+); 0.038 µM in the series on HIV-1-GFP [3] (Human immunodeficiency virus 1, THP-1, read-out: EC50 [95% CI], THP1 PMA+, Vpx−); 0.622 µM with HIV-1-GFP [3] (Human immunodeficiency virus 1, THP-1, read-out: EC50 [95% CI], THP1 PMA−, Vpx+); 0.459 µM in the series with HIV-1-GFP [3] (Human immunodeficiency virus 1, THP-1, read-out: EC50 [95% CI], THP1 PMA−, Vpx−). The “fold increase of anti-HIV-1 activity in PMA+ over PMA− cells” value with HIV-1-GFP [1] (THP-1) is recorded as 16 fold. Besides, the “SI, selectivity index CC50/EC50” value is > 6452 in the series on HIV-1-GFP [1] (THP-1 PMA+), > 406 with HIV-1-GFP [1] (THP-1 PMA−), > 27 in the series on HIV-1-GFP [1] (U937 PMA+) and > 14 in the series on HIV-1-GFP [1] (U937 PMA−). The “Fold (EC50 HD206/7AA vs SAMHD1)” value with HIV-1-GFP [2] (U937 PMA+) is on record as 41 fold; with HIV-1-GFP [2] (U937 PMA−), 1 fold. Further, the “Fold (EC50 Vpx+ vs Vpx−)” value was found to be 187 fold in the series with HIV-1-GFP [3] (THP1 PMA+) and 1 fold in the series with HIV-1-GFP [3] (THP1 PMA−). For the same compound, the CC50 at 48 h (in [4]; in series [5]; in series [6]; in series [7]; in “in vitro”) was > 200 µM in each case. Further, the half-maximal cytotoxic concentration (CC50) with U937 cells and in the series on THP-1 cells was > 200 µM in each case.

`Nc1nc2c(ncn2COCCOP(=O)(O)OP(=O)(O)OP(=O)(O)O)c(=O)[nH]1` [ACV-TP, Aciclovir triphosphate]: on SAMHD1, the “allosteric activation of SAMHD1” value is “allosteric activator of SAMHD1 with comparable efficiency to GTP” and the “hydrolysis by SAMHD1 (substrate)” value is given as “non-hydrolysable”.

The term CC50 denotes the concentration that lowers cell viability or growth by half. A low value points to harm at low concentration.

The record behind these values is PMC5318888, “SAMHD1 enhances nucleoside-analogue efficacy against HIV-1 in myeloid cells” (Scientific Reports, 2017).
